Reference: patent US20110190249A1, “THERAPEUTIC METHODS AND USES OF SAPOGENINS AND THEIR DERIVATIVES” (PHYTOPHARM PLC, priority 2002, published 2011)
Marks after values point to notes of the source that are not given here.

B1: BDNF: brain-derived neurotrophic factor, positive control (protein, UniProt P23560 19-247, looked up)
Neurotrophic factor BDNF …: APMKEANIRGQGGLAYPGVRTHGTLESVNGPKAGSRGLTSLADTFEHVIEELLDEDQKVRPNEENNKDADLYTSRVMLSSQVPLEPPLLFLLEEYKNYLDAANMSMRVRRHSDPARRGELSVCDSISEWVTAADKKTAVDMSGGTVTVLEKVPVSKGQLKQYFYETKCNPMGYTKEGCRGIDKRHWNSQCRTTQSYVRALTMDSKKRIGWRFIRIDTSCVCTLTIKRGR

Key:
[1] = test system: rat primary cortical neurones; experiment: Reversal of glutamate-induced neurodegeneration (LDH), treatment after glutamate exposure; assay type: cell-based; settings: LDH after 24 h, control = 100
Protocol: (§1) Neuronal cell survival was evaluated by measuring lactate dehydrogenase (LDH) activity released in the media 24 h after test compound treatment or glutamate+test compound exposure, using the CytoTox 96 non-radioactive kit and quantitated by measuring wavelength absorbance at 450 nm.
As above mentioned, exposure of rat primary cortical cultures to glutamate (100 μM; 10 min) caused an increase in lactate dehydrogenase (LDH) activity measured after 24 h, indicating a significant neurodegeneration.

[2] = test system: rat mesencephalic dopaminergic neurones; experiment: Treatment of dopaminergic neurones after MPP+ exposure (survival, neurites); assay type: cell-based; settings: treatment 0.03 nM; MPP+ 2 μM; MPP+ alone 76 ± 4
Excerpt: Smilagenin and sarsasapogenin also reverse the neurodegeneration caused by exposure to the neurotoxin 1-methyl-4-phenylpyridinium (MPP^+) in rat mesencephalic dopaminergic neurones; a model of Parkinson's disease in vitro.
Glial cell line-derived neurotrophic factor (GDNF) and brain-derived neurotrophic factor (BDNF), molecules that are involved in neuronal growth, and 17β-oestradiol were used as positive controls. Treatment with smilagenin and sarsasapogenin produced a significant increase in the neuronal survival compared to neurones exposed to MPP^+ alone (Table 8).
Exposure to MPP^+ caused not only a significant decrease in dopaminergic number but also in the percentage of neurites.

[3] = test system: rat primary spinal motor neurones; experiment: Glutamate-induced neurodegeneration in spinal motor neurones (LDH); assay type: cell-based; settings: control 100 ± 1
Protocol: The objective of this study was to examine the effects of sarsasapogenin and smilagenin on the survival of rat primary spinal motor neurones exposed to glutamate, which is known to induce neurodegeneration in this model of motor neurodegeneration.
Rat motor neurones were prepared according to the method described by (Martinou et al, Neuron, 8, 737-744, 1992). On day 10, medium was removed and the cultures were exposed to glutamate (4 microM) for 10 min at 37° C. in defined medium. After the glutamate exposure, cultures were washed with Dulbecco modified Eagle medium at 37° C. then placed in fresh culture medium containing test compounds. After 48 h, the extent of spinal motor neurone degeneration was determined by measuring the amount of lactate dehydrogenase (LDH) released into the culture medium as above.

[4] = test system: rat primary cortical neurones; experiment: Neurite outgrowth in rat primary cortical neurones; assay type: cell-based; settings: for Number of neurones displaying neurites, Mean ± s.e.m (%): control 47 ± 2; for Neurite length measured using optical micrometry, Mean ± s.e.m (%): control 100 ± 4
Excerpt: Neurodegenerative disorders are characterised by a progressive loss of neurones and degradation of neuronal processes (neurites). Agents that induce neurite outgrowth may promote the formation of new connections between neurones and ameliorate the symptoms of neurodegenerative conditions (Katzman et al, Faseb J., 5, 278-286, 1991).

[5] = test system: muscarinic acetylcholine receptor; experiment: Brain M receptor density (3H-QNB) in amyloid β + ibotenic acid rat model; assay type: in vivo; settings: 18 mg/kg/day gastric tube, two months; model 713 ± 48, control 859 ± 101
Protocol: (§2) An in vivo model of Alzheimer's disease was used to model neurodegeneration. In this model the neurotoxic agents (amyloid β and ibotenic acid) are injected into the brain of the rat. This leads to neuronal loss, receptor loss and cognitive impairment. […] In addition the co-injection of amyloid β with a small amount of ibotenic acid into the rat hippocampus synergistically produces neuronal loss with infiltration of glial cells not only adjacent but also far from the injected site (Morimoto et al., 1998: Neuroscience, 84, 479-487).
(§3) Our studies used the method of Morimoto (Morimoto et al., 1998: Neuroscience, 84, 479-487) with some modifications (unilateral instead of bilateral injection). Three months old, Sprague Dawley rats, were randomly divided into different groups. Injection of amyloid β1-40 and ibotenic acid (both from Sigma) was accomplished by means of a stereotaxic instrument (Stoelting Co.) and the coordinates were AP=−0.5 mm […], L=−2.8 mm […], H=−7.0 mm (ventral to dura). The dose for each rat was amyloid β1-40 (4 μg) and ibotenic acid (1 μg) in 1 μl of saline. The injection was completed in 20 min, and the needle was withdrawn 10 min later. Then the skin was sutured.
(§4) The 8 groups were: • Operated control injected with normal saline (control) • Model (control injected with amyloid β+ibotenic acid) • Model+Episarsasapogenin cathylate (18 mg/kg/day)* • Model+Sarsasapogenin cathylate (18 mg/kg/day)* • Model+Episarsasapogenin ethylsuccinate (18 mg/kg/day) (comparison) • Model+Episarsasapogenin (18 mg/kg/day)* • Model+Epismilagenin (18 mg/kg/day)* • Model+Diosgenin (i.e. negative control, 18 mg/kg/day)
(§5) Episarsasapogenin cathylate, sarsasapogenin cathylate, episarsasapogenin ethylsuccinate (comparison compound), episarsasapogenin, epismilagenin and diosgenin (all at a dosage of 18 mg/kg/day) were administered to animals as stable suspensions in CMC—Na (0.5%) once daily through a gastric tube. The control and the model group were given the same volume of CMC—Na (0.5%) once daily. The drugs and vehicles were given for a period of two months, starting 20 days before operation.
Muscarinic acetylcholine receptor density was assessed. The brain samples were homogenised, centrifuged, and the pellet of centrifugation at 27000×g was re-homogenised and used for measurement. The concentration of ^3H-QNB was chosen at the saturation range. After incubation and separation, the bound portion was measured by liquid scintillation counter.

[6] = test system: Sprague Dawley rats injected with amyloid β1-40 and ibotenic acid; experiment: Step-through test in amyloid β + ibotenic acid rat model; assay type: in vivo; settings: 18 mg/kg/day gastric tube, two months; errors in 5 min; model 4.00 ± 2.40, control 0.60 ± 0.70
Protocol: as §2, §3, §4, §5
Step-Through Test: learning and memory. The effect of test compounds on learning and memory was assessed using the step-through test. A 60×15×15 cm box, divided into 2 equally sized rooms, one dark room with copper rod base, which was electrically charged (40 V ac) when in use, while the other was a light room but not electrically charged. Between the two rooms there is an opening (hole) for the rat to go through. The experiment is carried out for each rat on two consecutive days. The first day is for training; when the rat is adapted in the box for the first 3 min, then put in the light room, with its back toward the hole, and the copper rods of the dark room are charged for 5 min. The second day is for testing, when the number of crosses in 5 min are recorded. Improvements in memory are signalled by a reduction in the number of crosses.

[7] = test system: rat primary cortical neurones; experiment: Prevention of glutamate-induced neurodegeneration (LDH release), pre-treatment; assay type: cell-based; settings: 30 nM, given 24 h before glutamate; LDH 24 h after glutamate; control = 100
Protocol: The objective of this study was to examine the effects of sarsasapogenin, episarsasapogenin cathylate, episarsasapogenin, epismilagenin and smilagenin on the survival of rat primary cortical neurones exposed to glutamate, which is known to induce neuro degeneration.
Rat cortical neurones were cultured for 10 days; at day 10 the medium was changed to a serum-free defined medium. On day 12, 24 hours before glutamate exposure, cultures were washed and medium was replaced with fresh medium containing positive control (β-oestradiol), test compounds (sarsasapogenin, episarsasapogenin cathylate, episarsasapogenin, epismilagenin and smilagenin) or vehicle control (DMSO, 0.25%) or diosgenin as negative control.
On day 13, cultures were exposed to glutamate. After the incubation period, the cultures were washed with and placed in fresh medium, supplemented with relevant compounds or vehicle to evaluate their protective effects, 24 h after glutamate exposure.
as §1

[8] = 3 nM after glutamate 100 μM 10 min
[9] = 30 nM after glutamate 100 μM 10 min

Row | Molecule | Cortical neurones previously exposed to glutamate, Mean ± s.e.m (%) [1, 8] | Cortical neurones previously exposed to glutamate, Mean ± s.e.m (%) [1, 9] | M receptor density [5] | Learning and memory Step through test Error No [6] | further results
1 | CC(C)CCC1OC2C[C@H]3[C@@H]4CC[C@@H]5C[C@@H](O)CC[C@]5(C)[C@H]4CC[C@]3(C)[C@H]2[C@@H]1C (stereo partly drawn) [16,22-epoxycoprostan-3β-ol] | 114 ± 7% | 134 ± 5% |  |  | 
2 | C[C@]12CC[C@@H]3c4ccc(O)cc4CC[C@H]3[C@@H]1CC[C@@H]2O [17β-oestradiol, reference compound] | 69 ± 2% | 75 ± 5% |  |  | Dopaminergic neurones after MPP+ exposure (survival), Mean ± s.e.m (%) [2]: 106 + 5%; Glutamate-induced neurodegeneration in spinal motor neurones, Mean ± s.e.m (%) ([3]; 300 nM for 48 h after glutamate 4 microM 10 min): 116 + 6%; Number of neurones displaying neurites, Mean ± s.e.m (%) ([4]; 0.3 pM): 48 ± 2%; Neurite length measured using optical micrometry, Mean ± s.e.m (%) ([4]; 0.3 pM): 154 ± 5%; Number of neurones displaying neurites, Mean ± s.e.m (%) ([4]; 3 pM): 60 ± 2%; Neurite length measured using optical micrometry, Mean ± s.e.m (%) ([4]; 3 pM): 163 ± 4%; Number of neurones displaying neurites, Mean ± s.e.m (%) ([4]; 30 pM): 59 ± 2%
3 | CC(C)CCC[C@@H](C)[C@H]1CC[C@H]2[C@@H]3CC[C@@H]4C[C@@H](O)CC[C@]4(C)[C@H]3CC[C@]12C [Coprosterol, coprosterol] | 126 ± 5% | 116 ± 4% |  |  | 
4 | CCOC(=O)CCC(=O)OC1CCC2(C)C(CCC3C2CCC2(C)C3CC3OC4(CCC(C)CO4)C(C)C32)C1 (centres unmarked) [Episarsasapogenin ethylsuccinate, episarsasapogenin ethylsuccinate, reference compound] |  |  | 774 ± 79 fmol/mg/protein | 3.73 ± 1.35 | 
5 | CC1CCC2(OC1)OC1CC3C4CCC5CC(OC(=O)CN)CCC5(C)C4CCC3(C)C1C2C.Cl (centres unmarked) [Smilagenin glycinate hydrochloride, smilagenin glycinate hydrochloride] | 117 ± 4% | 141 ± 6% |  |  | 
6 | C[C@@H]1CC[C@@]2(OC1)O[C@H]1C[C@H]3[C@@H]4CC[C@@H]5CC(=O)CC[C@]5(C)[C@H]4CC[C@]3(C)[C@H]1[C@@H]2C [Smilagenone, smilagenone] | 119 ± 7% | 119 ± 4% |  |  | 
7 | C[C@@H]1CC[C@@]2(OC1)O[C@H]1C[C@H]3[C@@H]4CC=C5C[C@@H](O)CC[C@]5(C)[C@H]4CC[C@]3(C)[C@H]1[C@@H]2C [diosgenin, reference compound] |  | 49 ± 6% | 770 ± 68 fmol/mg/protein | 3.75 ± 1.49 | Prevention of glutamate-induced neurodegeneration, Mean ± s.e.m (%) [7]: 72 ± 4%
8 | C[C@H]1CC[C@@]2(OC1)O[C@H]1C[C@H]3[C@@H]4CC[C@@H]5C[C@H](O)CC[C@]5(C)[C@H]4CC[C@]3(C)[C@H]1[C@@H]2C [episarsasapogenin] |  |  | 869 ± 104* fmol/mg/protein | 1.50 ± 1.18* | Prevention of glutamate-induced neurodegeneration, Mean ± s.e.m (%) [7]: 88 ± 3%
9 | C[C@@H]1CC[C@@]2(OC1)O[C@H]1C[C@H]3[C@@H]4CC[C@@H]5C[C@H](O)CC[C@]5(C)[C@H]4CC[C@]3(C)[C@H]1[C@@H]2C [epismilagenin] |  |  | 877 ± 90* fmol/mg/protein | 1.73 ± 0.91* | Prevention of glutamate-induced neurodegeneration, Mean ± s.e.m (%) [7]: 79 ± 2%
10 | CCOC(=O)OC1CCC2(C)C(CCC3C2CCC2(C)C3CC3OC4(CCC(C)CO4)C(C)C32)C1 (centres unmarked) [sarsasapogenin cathylate] |  |  | 916 ± 158* fmol/mg/protein | 1.36 ± 1.03* | 
11 | B1 |  |  |  |  | Glutamate-induced neurodegeneration in spinal motor neurones, Mean ± s.e.m (%) ([3]; 3 nM for 48 h after glutamate 4 microM 10 min): 148 ± 8%
